The subject of this experiment is T47D human breast carcinoma cells. Put plainly: cells. In kind it is cell-based. The note with it: for activation at 0.1 µM / inhibition at 0.1 µM / IC50 / EC50: Homo sapiens, T47D; for activation at 0.1 µM: 48 h, read-out: PS [100 nM] (% stimulation); for inhibition at 0.1 µM: read-out: PI [100 nM] (% inhibition); for IC50: read-out: pIC50 (converted); for EC50: read-out: pEC50 (converted); for PS [100 nM] (% stimulation): agonistic mode, alkaline phosphatase induction (100% = 1 nM Dydrogesterone); for PS [100 nM] (% stimulation) / PI [100 nM] (% inhibition): compound 100 nM; for PS [100 nM] (% stimulation) / PI [100 nM] (% inhibition) / pIC50: T47D cells; for PI [100 nM] (% inhibition): antagonistic mode, inhibition of alkaline phosphatase induction by 1 nM Dydrogesterone; for pIC50: antagonistic potency against 1 nM Dydrogesterone. Here is the method: The progesterone-dependent modulation of alkaline phosphatase expression was examined using T47D human breast carcinoma cells [Keydar et al., 1979]. The assay was performed as previously described by Di Lorenzo et al. (1991) with the modification of using Dydrogesterone as comparative progestin to determine the antagonistic and agonistic activity.
The cell line was purchased from CLS Cell Lines Service (Hildastrasse 21, D-69214 Eppelheim, Germany). In brief, the cells were plated in 96-well plates at 40,000 cells/well using the following growth medium: RPMI 1640 with: 10% FBS, 1 mM Sodium Pyruvat MEM, 10 mM Hepes, 0.01 mg/ml Bovine insulin, and 25 μg/ml Gentamycin. After 24 h of cultivation, the growth medium was replaced with medium containing 2% fetal bovine serum and the test compounds were added to each well to achieve the appropriate compound concentration: For determination of agonistic activity only the test compounds were added; for measurement of antagonistic activity the test compounds and additionally Dydrogesterone as standard progesterone agonist was added to a final concentration of 1 nM. After 48 h of cultivation, the medium was removed and the cells were washed with 200 μl of Dulbecco's phosphate-buffered saline without calcium and magnesium (PBS(−)). Then the cells were fixed with 3.7% formaldehyde in phosphate-buffered saline for 15 min at 22° C. After washing the cells with PBS, 100 μl of a […] (pNPP) solution (pNPP Liquid Substrate System; Sigma) was added to each well and incubated for 2 h at room temperature protected from light. The reaction was stopped with 100 μl 1N NaOH and the absorbance was measured with a spectrophotometer (Victor, Perkin Elmer) at 405 nm. The results are expressed as alkaline phosphatase induction (as 100% with 1 nM Dydrogesterone) or inhibition (against alkaline phosphatase induction by 1 nM Dydrogesterone) at a certain concentration of test compound.
% stimulation=(effect compound−basal)/(effect dydro 1 nM−basal)*100% inhibition of 1 nM Dydro=100*{1-[(effect compound−basal)/(effect dydro 1 nM−basal)]}
For each compound the % inhibition (PI) and % stimulation (PS), respectively, at a compound concentration of 100 nM was determined. For selected compounds, the corresponding values were measured for several different concentrations, and subsequently were plotted against the concentration of the test compound, and used to calculate the IC50 value (for the antagonistic potency; the IC50 value is the concentration (nM), required to reduce the maximal response by 50%) and EC50 values (for the agonistic potency; the EC50 value is the effective concentration (nM) that produced 50% of the maximum response), respectively.

Broadly, the inhibition is the relative decrease from the control value, in per cent. As a reminder, the pIC50 is the negative decadic logarithm of the IC50, by convention in mol/L. Higher therefore signals a small IC50.

Regarding `CC(=O)[C@H]1CC[C@H]2[C@@H]3C=CC4=CC(=O)CC[C@@]4(C)[C@@H]3[C@@H](OC(=O)NC(C)C)C[C@]12C` [Compound No. 1, Dydrogesterone-11β-yl isopropylcarbamate], the activation at 0.1 µM is -3%, the inhibition at 0.1 µM was 46% and the IC50 is 158 nM.
As to `COc1ccc(NC(=O)O[C@H]2C[C@]3(C)[C@@H](C(C)=O)CC[C@H]3[C@@H]3C=CC4=CC(=O)CC[C@@]4(C)[C@@H]32)cc1` [Compound No. 11, (4-Methoxy-phenyl)-carbamic acid dydrogesterone-11β-yl ester], the activation at 0.1 µM stood at 0% and the inhibition at 0.1 µM came out at 39%.
With `CCO[C@]1(C(C)=O)CC[C@H]2[C@@H]3C=CC4=CC(=O)CC[C@@]4(C)[C@@H]3[C@@H](OC(=O)Nc3cccc(OC)c3)C[C@@]21C` [Compound No. 12, (3-Methoxy-phenyl)-carbamic acid 17-ethoxy-dydrogesterone-11β-yl ester], the activation at 0.1 µM was 23%, the inhibition at 0.1 µM turned out to be 72% and the IC50 was 6.31 nM.
As to `CC(=O)[C@H]1CC[C@H]2[C@@H]3C=CC4=CC(=O)CC[C@@]4(C)[C@@H]3[C@@H](OC(=O)Nc3cccc(C(N)=O)c3)C[C@]12C` [Compound No. 14, (3-Carbamoyl-phenyl)-carbamic acid dydrogesterone-11β-yl ester], the activation at 0.1 µM is -1%, the inhibition at 0.1 µM was 38% and the IC50 was 50.1 nM.
As for `COc1cccc(NC(=O)O[C@H]2C[C@]3(C)[C@@H](C(C)=O)CC[C@H]3[C@@H]3C=CC4=CC(=O)CC[C@@]4(C)[C@@H]32)c1` [Compound No. 15, (3-Methoxy-phenyl)-carbamic acid dydrogesterone-11β-yl ester], the activation at 0.1 µM is -3%, the inhibition at 0.1 µM stood at 43% and the IC50 is 126 nM.
In the case of `COc1ccc(C(=O)O[C@H]2C[C@]3(C)[C@@H](C(C)=O)CC[C@H]3[C@@H]3C=CC4=CC(=O)CC[C@@]4(C)[C@@H]32)cc1` [Compound No. 22, 4-Methoxy-benzoic acid dydrogesterone-11β-yl ester], the activation at 0.1 µM was 29%, the inhibition at 0.1 µM stood at 55%, the EC50 was 12.6 nM and the IC50 was 20 nM.
For `CCO[C@]1(C(C)=O)CC[C@H]2[C@@H]3C=CC4=CC(=O)CC[C@@]4(C)[C@@H]3[C@@H](OC(=O)c3ccccc3)C[C@@]21C` [Compound No. 23, Benzoic acid 17-ethoxy-dydrogesterone-11β-yl ester], the activation at 0.1 µM stood at 16%, the inhibition at 0.1 µM came out at 69% and the IC50 is 15.8 nM.
In the case of `CCNC(=O)O/N=C/c1cccc(NC(=O)O[C@H]2C[C@]3(C)[C@@H](C(C)=O)CC[C@H]3[C@@H]3C=CC4=CC(=O)CC[C@@]4(C)[C@@H]32)c1` [Compound No. 33, [3-(N-Ethylcarbamoyl-oximino-formyl)-phenyl]-carbamic acid dydrogesterone-11β-yl ester], the activation at 0.1 µM was 56%, the inhibition at 0.1 µM was -29% and the EC50 is 200 nM.
Turning to `CC(=O)[C@H]1CC[C@H]2[C@@H]3C=CC4=CC(=O)CC[C@]4(C)[C@H]3C(OC(=O)Nc3ccc4ncccc4c3)C[C@]12C` (stereo partly drawn) [compound 69, Quinolin-6-yl-carbamic aciddydrogesterone-11-yl ester], the “PS [100 nM] (% stimulation)” value was 4.0%, the “PI [100 nM] (% inhibition)” value is reported as 41.0% and the negative logarithm of the IC50 (pIC50) is given as 7.2.
The matching figures for `CC(=O)[C@H]1CC[C@H]2[C@@H]3C=CC4=CC(=O)CC[C@@]4(C)[C@@H]3C(OC(=O)Nc3ccc4c(c3)OCCO4)C[C@]12C` (stereo partly drawn) [compound 70, (2,3-Dihydro-benzo[1,4]dioxin-6-yl)-carbamic aciddydrogesterone-11-yl ester]: 1.0%, 44.0% and 6.9.
